These results are taken from patent US10329309B2, “3-(3H-imidazo[4,5-B]pyridin-2-yl)-1H-pyrazolo[4,3-B]pyridines and therapeutic uses thereof” (Samumed, LLC, priority 2015, dated 2019).

The structures appear in SMILES notation. pEC50: −log10 of the molar value.

For orientation: pEC50 means −log10 of the EC50, conventionally taken in molar units. The low end stands for a high EC50, the high end for a low EC50. As usually defined, the inhibition is how much of the control response was suppressed.

This assay has as its system primary human fibroblasts derived from IPF patients (LL29 cells), α-smooth muscle actin (αSMA). The assay is described as follows: Inhibition of the fibrotic process: TGF-β1-treated primary human fibroblasts from IPF patients, αSMA staining. It counts as cell-based. As to conditions: Fibroblast, 96 h, 4 days; for pEC50: LL29 fibroblasts from IPF patients, TGF-β1 20 ng/mL, inhibition of fibrotic process; for inhibition at 10 µM: LL29 fibroblasts, TGF-β1 treated, read-out: percent inhibition at 10 μM (given for EC50 of >10 μM). In outline: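 Potency reflects suppression of TGF-β1-driven αSMA expression in IPF patient fibroblasts over 4 days. Values are EC50s from normalized αSMA-positive cell counts, with % inhibition at 10 μM when EC50 exceeded 10 μM.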

In the case of `COc1cncc(-c2ccc3[nH]nc(-c4nc5c(N6CCCCC6)ccnc5[nH]4)c3n2)c1` [Compound 612, 5-(5-Methoxypyridin-3-yl)-3-(7-(piperidin-1-yl)-3H-imidazo[4,5-b]pyridin-2-yl)-1H-pyrazolo[4,3-b]pyridine], the pEC50 was less than 5.00 and the inhibition at 10 µM is 30.3%.

Consider `Cc1cn(-c2ccnc3[nH]c(-c4n[nH]c5ccc(-c6cncc(OCCN(C)C)c6)nc45)nc23)cn1` [Compound 627, N,N-Dimethyl-2-((5-(3-(7-(4-methyl-1H-imidazol-1-yl)-3H-imidazo[4,5-b]pyridin-2-yl)-1H-pyrazolo[4,3-b]pyridin-5-yl)pyridin-3-yl)oxy)ethan-1-amine], for which the pEC50 was 5.32. Consider `Cc1cn(-c2ccnc3[nH]c(-c4n[nH]c5ccc(C6=CCNCC6)nc45)nc23)cn1` [Compound 618, 3-(7-(4-Methyl-1H-imidazol-1-yl)-3H-imidazo[4,5-b]pyridin-2-yl)-5-(1,2,3,6-tetrahydropyridin-4-yl)-1H-pyrazolo[4,3-b]pyridine], for which the pEC50 is less than 5.00 and the inhibition at 10 µM turned out to be 0%. Regarding `CN1CCN(c2ccnc3[nH]c(-c4n[nH]c5ccc(-c6cnccn6)nc45)nc23)CC1` [Compound 648, 3-(7-(4-Methylpiperazin-1-yl)-3H-imidazo[4,5-b]pyridin-2-yl)-5-(pyrazin-2-yl)-1H-pyrazolo[4,3-b]pyridine], the pEC50 was less than 5.00 and the inhibition at 10 µM came out at 0%.

As for `c1cc(-c2ccc3c(c2)OCO3)c2nc(-c3n[nH]c4ccc(C5CCNCC5)nc34)[nH]c2n1` [Compound 1108, 3-(7-(Benzo[d][1,3]dioxol-5-yl)-3H-imidazo[4,5-b]pyridin-2-yl)-5-(piperidin-4-yl)-1H-pyrazolo[4,3-b]pyridine], the pEC50 is less than 5.00 and the inhibition at 10 µM came to 0%. On to `c1ccc(COc2cncc(-c3ccc4[nH]nc(-c5nc6c(-c7ccncc7)ccnc6[nH]5)c4n3)c2)cc1` [Compound 582, 5-(5-(Benzyloxy)pyridin-3-yl)-3-(7-(pyridin-4-yl)-3H-imidazo[4,5-b]pyridin-2-yl)-1H-pyrazolo[4,3-b]pyridine], for which the pEC50 is 6.19.

In turn, `c1cnc2[nH]c(-c3n[nH]c4ccc(-c5cncc(OC6CCNCC6)c5)nc34)nc2c1` [Compound 656, 3-(3H-Imidazo[4,5-b]pyridin-2-yl)-5-(5-(piperidin-4-yloxy)pyridin-3-yl)-1H-pyrazolo[4,3-b]pyridine] had a pEC50 of 5.20.

As for `c1cc(N2CCCCC2)c2nc(-c3n[nH]c4ccc(-c5cncc(OCCN6CCCC6)c5)nc34)[nH]c2n1` [Compound 610, 3-(7-(Piperidin-1-yl)-3H-imidazo[4,5-b]pyridin-2-yl)-5-(5-(2-(pyrrolidin-1-yl)ethoxy)pyridin-3-yl)-1H-pyrazolo[4,3-b]pyridine], the pEC50 is 5.64. Same read-out and setting: the result for `C1=C(c2ccc3[nH]nc(-c4nc5c(-c6ccc7c(c6)OCO7)ccnc5[nH]4)c3n2)CCNC1` [Compound 1109, 3-(7-(Benzo[d][1,3]dioxol-5-yl)-3H-imidazo[4,5-b]pyridin-2-yl)-5-(1,2,3,6-tetrahydropyridin-4-yl)-1H-pyrazolo[4,3-b]pyridine] reads 5.21. In the case of `O=C(Cc1ccccc1)Nc1cncc(-c2ccc3[nH]nc(-c4nc5cccnc5[nH]4)c3n2)c1` [Compound 262, N-(5-(3-(3H-imidazo[4,5-b]pyridin-2-yl)-1H-pyrazolo[4,3-b]pyridin-5-yl)pyridin-3-yl)-2-phenylacetamide], the pEC50 is less than 5.00 and the inhibition at 10 µM stood at 0%. Molecule `c1cncc(-c2ccnc3[nH]c(-c4n[nH]c5ccc(-c6cncc(OC7CCCCC7)c6)nc45)nc23)c1` [Compound 559, 5-(5-(Cyclohexyloxy)pyridin-3-yl)-3-(7-(pyridin-3-yl)-3H-imidazo[4,5-b]pyridin-2-yl)-1H-pyrazolo[4,3-b]pyridine] had a pEC50 of 5.29. With `O=C(Nc1cncc(-c2ccc3[nH]nc(-c4nc5c(-c6cccc(F)c6)ccnc5[nH]4)c3n2)c1)C1CC1` [Compound 20, N-(5-(3-(7-(3-Fluorophenyl)-3H-imidazo[4,5-b]pyridin-2-yl)-1H-pyrazolo [4,3-b]pyridin-5-yl)pyridin-3-yl)cyclopropanecarboxamide], the pEC50 was less than 5.00 and the inhibition at 10 µM came out at 20.2%. The molecule `CN(C)CCNc1cc(F)cc(-c2ccnc3[nH]c(-c4n[nH]c5ccc(-c6ccccn6)nc45)nc23)c1` [Compound 476, N^1-(3-Fluoro-5-(2-(5-(pyridin-2-yl)-1H-pyrazolo[4,3-b]pyridin-3-yl)-3H-imidazo[4,5-b]pyridin-7-yl)phenyl)-N^2,N^2-dimethylethane-1,2-diamine] showed a pEC50 of 5.36. With `Oc1cncc(-c2ccc3[nH]nc(-c4nc5c(-c6cccnc6)ccnc5[nH]4)c3n2)c1` [Compound 565, 5-(3-(7-(Pyridin-3-yl)-3H-imidazo[4,5-b]pyridin-2-yl)-1H-pyrazolo[4,3-b]pyridin-5-yl)pyridin-3-ol], the pEC50 is less than 5.00 and the inhibition at 10 µM turned out to be 0%. Turning to `Cc1cn(-c2ccnc3[nH]c(-c4n[nH]c5ccc(-c6cncc(N7CC(N)C7)n6)nc45)nc23)cn1` [Compound 622, 1-(6-(3-(7-(4-Methyl-1H-imidazol-1-yl)-3H-imidazo[4,5-b]pyridin-2-yl)-1H-pyrazolo[4,3-b]pyridin-5-yl)pyrazin-2-yl)azetidin-3-amine], the pEC50 is 5.32. For `CS(=O)(=O)NCc1cc(F)cc(-c2ccnc3[nH]c(-c4n[nH]c5ccc(-c6cncnc6)nc45)nc23)c1` [Compound 503, N-(3-Fluoro-5-(2-(5-(pyrimidin-5-yl)-1H-pyrazolo[4,3-b]pyridin-3-yl)-3H-imidazo[4,5-b]pyridin-7-yl)benzyl)methanesulfonamide], the pEC50 is less than 5.00 and the inhibition at 10 µM is 0%.

On to `c1cc(-c2ccnc3[nH]c(-c4n[nH]c5ccc(-c6cnccn6)nc45)nc23)ccn1` [Compound 584, 5-(Pyrazin-2-yl)-3-(7-(pyridin-4-yl)-3H-imidazo[4,5-b]pyridin-2-yl)-1H-pyrazolo[4,3-b]pyridine], for which the pEC50 is less than 5.00 and the inhibition at 10 µM stood at 4.5%. Turning to `CS(=O)(=O)NCc1cc(F)cc(-c2ccnc3[nH]c(-c4n[nH]c5ccc(-c6cncc(NC(=O)c7ccccc7)c6)nc45)nc23)c1` [Compound 487, N-(5-(3-(7-(3-Fluoro-5-(methylsulfonamidomethyl)phenyl)-3H-imidazo[4,5-b]pyridin-2-yl)-1H-pyrazolo[4,3-b]pyridin-5-yl)pyridin-3-yl)benzamide], the pEC50 is less than 5.00 and the inhibition at 10 µM is 0%.

In turn, `COc1cncc(-c2ccc3[nH]nc(-c4nc5c(-c6ccoc6)ccnc5[nH]4)c3n2)c1` [Compound 692, 3-(7-(Furan-3-yl)-3H-imidazo[4,5-b]pyridin-2-yl)-5-(5-methoxypyridin-3-yl)-1H-pyrazolo[4,3-b]pyridine] showed a pEC50 of 5.88.

As to `O=C(Nc1cncc(-c2ccc3[nH]nc(-c4nc5cccnc5[nH]4)c3n2)c1)C1CCCCC1` [Compound 275, N-(5-(3-(3H-Imidazo[4,5-b]pyridin-2-yl)-1H-pyrazolo[4,3-b]pyridin-5-yl)pyridin-3-yl)cyclohexanecarboxamide], the pEC50 was 5.40. As to `Cn1cc(-c2ccc3[nH]nc(-c4nc5c(-c6cccs6)ccnc5[nH]4)c3n2)cn1` [Compound 700, 5-(1-Methyl-1H-pyrazol-4-yl)-3-(7-(thiophen-2-yl)-3H-imidazo[4,5-b]pyridin-2-yl)-1H-pyrazolo[4,3-b]pyridine], the pEC50 is 6.36. The same measure, in the same setting: the result for `COc1cccc(-c2ccnc3[nH]c(-c4n[nH]c5ccc(-c6cncc(OC7CCNCC7)c6)nc45)nc23)c1` [Compound 1025, 3-(7-(3-Methoxyphenyl)-3H-imidazo[4,5-b]pyridin-2-yl)-5-(5-(piperidin-4-yloxy)pyridin-3-yl)-1H-pyrazolo[4,3-b]pyridine] reads 5.54. With `c1cc(-c2ccc3[nH]nc(-c4nc5c(-c6ccncc6)ccnc5[nH]4)c3n2)ccn1` [Compound 130, 5-(pyridin-4-yl)-3-(7-(pyridin-4-yl)-3H-imidazo[4,5-b]pyridin-2-yl)-1H-pyrazolo [4,3-b]pyridine], the pEC50 is less than 5.00 and the inhibition at 10 µM turned out to be 39.3%.

Regarding `CN(C)CCNc1cc(F)cc(-c2ccnc3[nH]c(-c4n[nH]c5ccc(-c6cncc(OCCN7CCCC7)c6)nc45)nc23)c1` [Compound 786, N^1-(3-Fluoro-5-(2-(5-(5-(2-(pyrrolidin-1-yl)ethoxy)pyridin-3-yl)-1H-pyrazolo[4,3-b]pyridin-3-yl)-3H-imidazo[4,5-b]pyridin-7-yl)phenyl)-N^2,N^2-dimethylethane-1,2-diamine], the pEC50 is 5.54.

The molecule `Cn1cc(-c2ccc3[nH]nc(-c4nc5c(N6CCCCC6)ccnc5[nH]4)c3n2)c(CO)n1` [Compound 1134, (1-Methyl-4-(3-(7-(piperidin-1-yl)-3H-imidazo[4,5-b]pyridin-2-yl)-1H-pyrazolo[4,3-b]pyridin-5-yl)-1H-pyrazol-3-yl)methanol] showed a pEC50 of 6.83.
